Reference: US5604231A, “Pharmaceutical compositions for prevention and treatment of ulcerative colitis” (priority 1995, dated 1997)
pKi: −log10 of the molar value.

Key:
[1] = in words; some patients; cited from earlier work
[2] = biological target: T1, muscle-like nicotinic receptors (TE671/RD) (Homo sapiens, UniProt P02708+P07510+P11230+Q07001); experiment: cell-based; settings: for Emax: TE671/RD, read-out: Muscle Effect (% nicotine)
T1 construct: these cells express muscle-like nicotinic receptors; endogenous in cells; host or cells: TE671/RD (human embryonal rhabdomyosarcoma)
T1 sequence (P02708 21-457): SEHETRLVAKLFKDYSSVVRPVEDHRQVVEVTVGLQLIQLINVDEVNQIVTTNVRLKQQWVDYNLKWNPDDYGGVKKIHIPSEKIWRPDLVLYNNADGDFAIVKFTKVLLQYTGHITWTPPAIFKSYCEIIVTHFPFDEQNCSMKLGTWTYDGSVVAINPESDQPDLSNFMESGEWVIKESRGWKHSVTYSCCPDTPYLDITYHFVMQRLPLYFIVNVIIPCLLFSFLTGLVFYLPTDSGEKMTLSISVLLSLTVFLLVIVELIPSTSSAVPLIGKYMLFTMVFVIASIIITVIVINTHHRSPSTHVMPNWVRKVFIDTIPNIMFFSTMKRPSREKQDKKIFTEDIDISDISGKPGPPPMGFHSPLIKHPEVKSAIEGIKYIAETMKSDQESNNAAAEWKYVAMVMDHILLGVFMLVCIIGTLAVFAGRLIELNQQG
T1 sequence (Q07001 22-517): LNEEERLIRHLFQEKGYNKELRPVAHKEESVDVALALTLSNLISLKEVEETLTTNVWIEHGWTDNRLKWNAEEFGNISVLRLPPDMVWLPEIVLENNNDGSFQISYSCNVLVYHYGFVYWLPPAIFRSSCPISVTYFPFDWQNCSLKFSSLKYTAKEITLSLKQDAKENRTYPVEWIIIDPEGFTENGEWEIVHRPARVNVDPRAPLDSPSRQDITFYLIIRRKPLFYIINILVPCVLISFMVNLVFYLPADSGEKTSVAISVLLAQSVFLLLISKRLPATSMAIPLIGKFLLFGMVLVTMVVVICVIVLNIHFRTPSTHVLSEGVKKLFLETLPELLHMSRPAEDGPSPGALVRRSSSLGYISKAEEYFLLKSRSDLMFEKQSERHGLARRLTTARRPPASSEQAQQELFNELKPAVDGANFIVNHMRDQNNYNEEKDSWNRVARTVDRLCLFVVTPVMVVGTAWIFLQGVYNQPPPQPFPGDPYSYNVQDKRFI
T1 sequence (P07510 23-517): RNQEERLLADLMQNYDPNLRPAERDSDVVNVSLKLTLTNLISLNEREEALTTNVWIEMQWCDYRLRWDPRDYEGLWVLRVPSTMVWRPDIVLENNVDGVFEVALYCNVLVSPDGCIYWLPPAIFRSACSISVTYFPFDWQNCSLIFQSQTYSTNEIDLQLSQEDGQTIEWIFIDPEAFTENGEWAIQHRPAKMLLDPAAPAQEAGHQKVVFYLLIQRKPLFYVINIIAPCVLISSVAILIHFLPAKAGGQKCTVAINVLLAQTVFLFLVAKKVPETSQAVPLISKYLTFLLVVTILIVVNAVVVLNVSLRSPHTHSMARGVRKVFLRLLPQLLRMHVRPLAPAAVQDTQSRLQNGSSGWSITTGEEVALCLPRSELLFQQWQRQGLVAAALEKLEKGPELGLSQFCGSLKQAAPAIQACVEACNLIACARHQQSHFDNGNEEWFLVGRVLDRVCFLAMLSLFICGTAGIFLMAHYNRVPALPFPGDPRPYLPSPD
T1 sequence (P11230 24-501): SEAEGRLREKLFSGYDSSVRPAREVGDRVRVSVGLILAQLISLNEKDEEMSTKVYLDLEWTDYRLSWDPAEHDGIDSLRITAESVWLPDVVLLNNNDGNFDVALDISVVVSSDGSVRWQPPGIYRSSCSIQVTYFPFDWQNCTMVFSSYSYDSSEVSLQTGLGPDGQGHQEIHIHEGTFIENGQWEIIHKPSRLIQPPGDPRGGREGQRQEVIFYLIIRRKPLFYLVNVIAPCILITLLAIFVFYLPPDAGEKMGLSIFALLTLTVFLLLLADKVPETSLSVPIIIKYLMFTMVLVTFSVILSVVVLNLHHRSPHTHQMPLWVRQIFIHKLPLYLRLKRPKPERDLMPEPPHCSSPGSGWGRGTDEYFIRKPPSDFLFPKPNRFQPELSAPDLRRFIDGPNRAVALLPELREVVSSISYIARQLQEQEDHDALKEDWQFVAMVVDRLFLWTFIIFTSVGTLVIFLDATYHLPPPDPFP

[3] = in words; literature; cited from earlier work
[4] = system: IL-2; memory; neurotransmitter release in the CNS; settings: in words; literature; cited from earlier work
[5] = in words; literature; cited from earlier work; remark: listed apart in the source
nicotinic receptors = experiment: Determination of binding of compounds to relevant receptor sites (inhibition of L-[3H]nicotine binding, brain membrane preparations); set-up: species or system rat (Sprague-Dawley)
Procedure: Rats (Sprague-Dawley) were maintained on a 12 hour light/dark cycle and were allowed free access to water and food supplied by Wayne Lab Blox, Madison, Wis. Animals used in the present studies weighed 200 to 250 g. Brain membrane preparations were obtained from brain tissue of either males or females.
Rats were killed by decapitation following anesthesia with 70% CO2. Brains were removed and placed on an ice-cold platform. […] The resulting homogenate was centrifuged at 18,000×g for 20 min. and the resulting pellet was resuspended in 20 volumes of water. After 60 min. incubation at 4° C., a new pellet was collected by centrifugation at 18,000×g for 20 min. After resuspension in 10 volumes of buffer, a new final pellet was again collected by centrifugation at 18,000×g for 20 min. Prior to each centrifugation step, the suspension was incubated at 37 ° C. for 5 min. to promote hydrolysis of endogenous acetylcholine. The final pellet was overlayered with buffer and stored at -70 ° C. On the day of the assay, that pellet was thawed, resuspended in buffer and centrifuged at 18,000×g for 20 min. The pellet obtained was resuspended in buffer to a final concentration of approximately 5 mg protein/mi. […]

## Nc1ccc(O)c(C(=O)O)c1 [mesalamine]
[1]
  effectiveness in treatment of acute UC: effective to some degree in some patients

## O=C(O)c1cc(/N=N/c2ccc(S(=O)(=O)Nc3ccccn3)cc2)ccc1O [sulfasalazine]
[1]
  effectiveness in treatment of acute UC: effective to some degree in some patients

## CNCC/C=C/c1cccnc1 [Sample No. 8, (E)-metanicotine]
[2]; te671/rd cells
  Muscle Effect (% nicotine): 15 % nicotine

## CN1CCC[C@H]1c1cccnc1 [C-1, (S)-(-)-nicotine]
[3]
  treatment of various CNS disorders: positive effect towards the treatment of various CNS disorders

## CN1CCCC1c1cccnc1 (centres unmarked) [nicotine]
[4]
  effects upon memory: positive effects upon memory
  neurotransmitter release in the CNS: induce neurotransmitter release in the CNS
  production of IL-2: inhibit the production of IL-2
[5]
  rectal blood flow: Positive effects

## CNCCC#Cc1cccnc1 [Sample No. 4, N-Methyl-4-(3-pyridinyl)-3-butyne-1-amine]
Nicotinic receptors
  pKi: 7.24
[2]
  Emax: 7%

## COc1cncc(/C=C/CCN)c1 [Sample No. 3, (E)-4-[3-(5-methoxypyridin)yl]-3-butene-1-amine monofumarate]
[2]
  Emax: 0%

## CNCC/C=C/c1cncnc1 [Sample No. 2, (E)-N-methyl-4-(5-pyrimidinyl)-3-butene-1-amine]
[2]
  Emax: 4%

## CNCCCCc1cccnc1 [Sample No. 7, N-methyl-(3-pyridinyl)-butane-1-amine]
[2]
  Emax: 0%

## CNCC/C=C/c1ccc(C)nc1 [Sample No. 6, (E)-N-methyl-4-[3-(6-methylpyridin)yl]-3-butene-1-amine]
[2]
  Emax: 2%
